Measurements reported in US11512042B2, “Enamine compounds for absorbance of electromagnetic energy” (Commonwealth Scientific and Industrial Research Organisation, priority 2015, dated 2022).
Several values for one entry are separate records, joined by “and”; a condition that tells them apart may be missing. Equal entries are not always repeated. Marks after values point to notes of the source that are not given here.

Key:
Type in all cases: physicochemical
[1] = Photostability protocol: thin film irradiated with xenon arc lamp; settings: 1 hour xenon arc lamp; for Photostability: ratio of absorbance at λmax irradiated vs unirradiated, ^a = average of multiple measurements
Method: 1 mL of a 3% solution of the test compound (30 mg of test compound in 1 mL solvent) was prepared in a solvent mix made up of 50% EtOH and 25% capric/caprylic triglyceride and 25% C12-C15 alkyl benzoate. 50 μL of this solution (containing 1.5 mg of test compound) was added carefully to the centre of a glass microscope slide and the volatile components left to evaporate in the dark for at least 3 hours to give a liquid film. The prepared films were then exposed for 1 hour to an Eimac 150 W xenon arc lamp filtered through Pyrex (15 Amp supply current, samples 19 cm from the lamp) previously allowed to warm up for 15 minutes prior to sample exposure. The irradiation was performed in a fume cupboard where the air flow was sufficient to keep sample T<30° C. One hour's exposure represented a calculated radiation dose (using meter) of approximately 100 MED.
In order to calculate the photostability of the test compounds, the exposed slides were placed in a beaker and rinsed with 2×5 mL EtOH, 1×5 mL MeOH. The combined washings were then added to a 100 mL volumetric flask and made up to 100 mL total volume with methanol. The UV absorbance was then measured in a 10 mm cuvette. The percent stability is measured as the ratio of absorbance at λmax for the irradiated sample compared to the unirradiated sample.
The thin films are a good surrogate for testing the stability of a candidate in, for example, a sunscreen formulation as they use cosmetic emollients as solvent and are formed at cosmetically relevant concentrations.

[2] = % transmission spectrum of 0.1% solution (breakthrough, steepness); settings: for Steepness: distance in nm over which transmittance increases from 1 to 80%; for Breakthrough (1% T at 0.1%): value in nm where transmittance increases beyond 1%, 0.1% solution
From the text: FIG. 2 is a is a graphical representation of the % transmission of compounds 142 and 143 measured in a 2 mm cuvette as 0.1% solutions in methanol (142 is the left most trace);
(§1) The synthesised benzoyl functionalised compounds and their spectroscopic properties can be seen in table 2 wherein; breakthrough denotes the value in nm where transmittance increases beyond 1%; steepness refers to the distance in nm over which transmittance increases from 1 to 80% (a higher value indicates a less steep transition from absorbing to transmitting and is generally unfavourable); and ^a denotes an average of multiple measurements. As a general comment, it can be noted that the benzoyl substituted compounds gave similar absorbance maxima to the corresponding trifluoroacetyl derivative.

[3] = UV absorbance spectrum in solution (λmax, λcrit, extinction coefficients); settings: for λcrit: critical wavelength; for E (1%, 1 cm): mass extinction coefficient; for ε: molar extinction coefficient, in M-1 cm-1 (unit assumed)
From the text: as §1, with “FIG. 1 is a graphical representation of the absorbance of compounds 142 and 143 measured in a 10 mm cuvette as 0.001% solutions in methanol (142 is the uppermost trace at peak point of approximately 330 nm); The” for “The”

Compound	Photostability [1]	Steepness [2] [nm]	Breakthrough (1% T at 0.1%) [2]	λmax [3] [nm]	λcrit [3] [nm]	E (1%, 1 cm) [3]	ε [3]	Photostability (% remains) [1] [%]
CCC(CC)(CC)OC(=O)/C(=C/N1CCc2cc(C(=O)OC)ccc21)c1ccccc1 [Compound 289]	78%	18	381 nm	357	370	1405	59157	
CCN(/C=C(\C(=O)C(=O)N(C)C)c1ccccc1)c1ccccc1 [Compound 259]	66%	34	378 nm	326	365	724	23336	
CCOC(=O)C(=O)/C(=C/N1CCc2cc(C(=O)OC)ccc21)c1ccccc1 [Compound 256]	85%	28	421 nm	372	391		48566 and 46566	
CCCN(/C=C(/C(=O)C(F)(F)F)c1ccccc1)c1ccccc1 [Compound 233]	87%	36	380 nm	331	365	734	24467	
Cc1ccc(C(=O)/C(=C/N2CCc3ccccc32)c2ccccc2)cc1 [Compound 272]	80%	35	421 nm	362	386	887	30075	
COC(=O)c1ccc2c(c1)CCN2/C=C(/C(=O)C(C)(C)C)c1ccccc1 [Compound 283]	87% and 88%	16	401 nm	367	384	1339	48637	
COC(=O)c1ccc2c(c1)CCN2/C=C(\C(=O)C(F)(F)F)c1ccccc1 [Compound 201]	97%	18	420 nm	373	391	1230	46134	97
COC(=O)c1ccc2c(c1)CCN2/C=C(/C(=O)c1ccccc1O[Si](C)(C)C(C)(C)C)c1ccccc1 [Compound 302]	45%	26	01 nm	369	384	1089	55852	
CCN(/C=C(/C(=O)C(=O)OC(C)(C)C)c1ccccc1)c1ccccc1 [Compound 271]	75%	36	381 nm	332	366	530	18592	
CCOC(=O)C(=O)/C(=C\N(CC)c1ccccc1)c1ccccc1 [Compound 248]	78%	38	383 nm	329	368	728	23523	
CCCCC(CC)COC(=O)C(=O)/C(=C/N1CCc2cc(C(=O)OC)ccc21)c1ccccc1 (stereo not shown) [Compound 278]	88%	30	418 nm	372	391	953	44118	
COc1ccccc1C(=O)/C(=C/N(c1ccccc1)c1ccccc1)c1ccccc1 [Compound 285]	76%	34	398 nm	345	378	666	27034	
Cc1cc(C)c(C(=O)/C(=C/N(c2ccccc2)c2ccccc2)c2ccccc2)c(C)c1 [Compound 254]	88^a %	32	383 nm	341	369	661	27592	
Cc1ccc(C(=O)/C(=C/N(c2ccccc2)c2ccccc2)c2ccccc2)cc1 [Compound 274]	76%	42	411 nm	353	384	420	16369	
CCCCC(CC)COC(=O)c1ccc2c(c1)CCN2C=C(C(=O)C(C)(C)C)c1ccccc1 (stereo not shown) [Compound 300]	81% and 83%	16	400 nm	367	384	1189	54826	
CCCCC(CC)COC(=O)c1ccc2c(c1)CCN2/C=C(/C(=O)c1ccncc1)c1ccccc1 (stereo not shown) [Compound 308]	79%	41	431 nm	374	391	796	38378	
CN(C)C(=O)C(=O)/C(=C\N1CCc2ccccc21)c1ccccc1 [Compound 258]	63%	23	409 nm	359	384	1045	33443	
O=C(/C(=C/N1CCc2ccccc21)c1ccccc1)c1ccccc1 [Compound 243]	70%	37	420 nm	361	386	893	29026	
CCN(/C=C(/C(=O)c1ccccc1C)c1ccccc1)c1ccccc1 [Compound 252]	48%	39	373 nm and 372 nm	323	359	771	26295	
Cc1cc(C)c(C(=O)/C(=C/N2CCc3ccccc32)c2ccccc2)c(C)c1 [Compound 253]	78%	26	392 nm	355	375	929	34122	
CCOC(=O)C(=O)/C(=C\N1CCc2ccccc21)c1ccccc1 [Compound 231]	80%	34	418 nm	363	388	989	31758	
CCCCC(CC)COC(=O)c1ccc2c(c1)CCN2/C=C(/C(=O)C(C)(C)C)c1ccc(Br)cc1 (stereo not shown) [Compound 309]	80%	19	397 nm	366	384	780	42050	
COC(=O)c1ccc2c(c1)CCN2/C=C(/C(=O)C(=O)OC(C)(C)c1ccccc1)c1ccccc1 [Compound 280]	68%	21	384 nm	357	370	1440	67567	
CCN(/C=C(/C(=O)c1ccc(C)cc1)c1ccccc1)c1ccccc1 [Compound 273]	73%	37	394 nm	336	376	614	20922	
COc1ccccc1C(=O)/C(=C/N1CCc2ccccc21)c1ccccc1 [Compound 275]	56%	30	406 nm	358	383	1074	38139	
